Values after ≈ are worked out from the molar mass of the structure shown.

As usually defined, the solubility is the dissolved amount per volume that the medium holds. A higher solubility goes with a readily soluble substance.

Conditions in the first data set: not given
Regarding `CCCC(Br)C(=O)NC(N)=O` (stereo not drawn), the solubility is 37.3 mM (≈ 8330 µg/mL). Turning to `COCCOC(=O)CCCCC(=O)OCCOC`, the solubility stood at 54.1 mM (≈ 14200 µg/mL). On to `Cc1cc(C)c(C)c(C)n1`, for which the solubility is 49.3 mM (≈ 6670 µg/mL). In the case of `Cn1cc(I)ccc1=O`, the solubility turned out to be 979 mM (≈ 230000 µg/mL). As for `NC(CC(=O)O)c1cccc2ccccc12` (stereo not drawn), the solubility came to 25.7 mM (≈ 5530 µg/mL). `O=C1CNC(=O)C(Cc2ccc(O)cc2)N1` (stereo not drawn) registered a solubility of 90.8 mM (≈ 20000 µg/mL).

In turn, `CC(C)(S(C)(=O)=O)S(C)(=O)=O` returned a solubility of 35.4 mM (≈ 7100 µg/mL). As to `O=S(=O)(O)c1cc(O)c2cc(Nc3ccccc3)ccc2c1`, the solubility was found to be 10.6 mM (≈ 3330 µg/mL). Still for that read-out and setting: the figure for `NC(CO)C(=O)N[C@@H](CO)C(=O)O` (stereo in doubt) is 260 mM (≈ 50000 µg/mL); for `CCOC(OCC)C(C)=O` it is 622 mM (≈ 91000 µg/mL).

Staying with this data set, now noted: 20 °C.
The compound `CC(C)C1(Br)C(=O)NC(=O)NC1=O` came in with a solubility of 6.18 mM (≈ 1540 µg/mL). `Cn1c(=O)c2c(n(C)c1=O)n(C)c(=O)n2C` returned a solubility of 112 mM (≈ 25000 µg/mL). In turn, `Cn1c(=O)c2n[se]nc2n(C)c1=O` returned a solubility of 5.02 mM (≈ 1230 µg/mL). The same measure, in the same setting: the figure for `CN(CCCCC(=O)O)S(=O)(=O)c1ccccc1` is 27.6 mM (≈ 7500 µg/mL); for `CC[C@@H]1C(=O)O[C@H]1C` it is 216 mM (≈ 24600 µg/mL); for `CCc1nc2cnc(O)nc2nc1CC` it is 5.44 mM (≈ 1110 µg/mL). The compound `O=C(CCCCC(=O)NCCO)NCCO` returned a solubility of 2580 mM (≈ 600000 µg/mL).

In turn, `NC(N)=Nc1nc2ccccc2s1` registered a solubility of 3.62 mM (≈ 696 µg/mL).

Consider `O=S(=O)(CCCl)CCCl`, for which the solubility turned out to be 31.4 mM (≈ 6000 µg/mL). On the same count and under the same terms, in the case of `c1ccc2c3c(ccc2c1)Nc1ccc2ccccc2c1S3` it was 0.000132 mM (≈ 0.0396 µg/mL); in that of `OCc1ccc(Br)cc1`, 11.8 mM (≈ 2200 µg/mL); in that of `COc1ccc2c(c1)Sc1ccc(Cl)cc1N2`, 0.0105 mM (≈ 2.77 µg/mL). Same read-out and setting: the figure for `CC1(CCN2CCCCC2)NC(=O)NC1=O` (stereo not drawn) is 151 mM (≈ 34000 µg/mL); for `CCCCCCC(O)C(O)C(=O)O` (stereo not drawn) it is 28.4 mM (≈ 5400 µg/mL). The compound `CC=C(CCCC)C(N)=O` gave a solubility of 42.5 mM (≈ 6000 µg/mL). As for `O=C(O)c1occ(Cl)c1Cl`, the solubility was determined as 14.9 mM (≈ 2700 µg/mL). Take `CCOC(C)CCO` (stereo not drawn): the solubility was 423 mM (≈ 50000 µg/mL).

Compound `O=C(O)c1c(Cl)c(Cl)c(Cl)c(Cl)c1C(=O)O` registered a solubility of 11.8 mM (≈ 3600 µg/mL). Compound `O=[N+]([O-])Cc1ccc2ccccc2n1` returned a solubility of 8.82 mM (≈ 1660 µg/mL). `CCC(CC)COC(C)=O` yielded a solubility of 44.4 mM (≈ 6400 µg/mL). Still for that read-out and setting: in the case of `CC(C)OC(=O)c1c(C(=O)O)cccc1[N+](=O)[O-]` it was 3.24 mM (≈ 820 µg/mL).

In the case of `C[C@H](NC=O)C(=O)O` (racemic), the solubility was 1020 mM (≈ 120000 µg/mL).

Still in this data set, the particulars now being: 25 °C.
In the case of `CC1=C(C(=O)O)CCC1(C)C`, the solubility is 1.3 mM (≈ 200 µg/mL). Compound `O=COCc1ccco1` yielded a solubility of 104 mM (≈ 13100 µg/mL). Compound `CC(NCCC#N)C(=O)O` (stereo not drawn) showed a solubility of 985 mM (≈ 140000 µg/mL).

For `C[Si](C)(O)O[Si](C)(C)O`, the solubility was 661 mM (≈ 110000 µg/mL). Same read-out and setting: the figure for `O=C(O)CCC(=O)c1cccc2ccccc12` is 0.329 mM (≈ 75 µg/mL); for `Cc1ccccc1OCC(=O)O` it is 3.61 mM (≈ 600 µg/mL); for `CCCCS(=O)(=O)C(S(=O)(=O)CCCC)S(=O)(=O)CCCC` it is 1.06 mM (≈ 400 µg/mL). Same read-out and setting: in the case of `CCCCCCCCCCCCNC(=O)c1cccnc1` it was 0.62 mM (≈ 180 µg/mL). As for `CNC(=O)N(C)C(=O)CC#N`, the solubility came out at 1480 mM (≈ 230000 µg/mL).

As to `C=CCOC(=O)C(C)OC(=O)C(C)O` (stereo not drawn), the solubility worked out at 208 mM (≈ 42000 µg/mL).

In the case of `C#CC#CC=C=CCCO`, the solubility came to 12.9 mM (≈ 1700 µg/mL).

The compound `O=C1CC=CS1` returned a solubility of 599 mM (≈ 60000 µg/mL). The same measure, in the same setting: in the case of `CC(C)[C@@H](O)C#N` it was 2020 mM (≈ 200000 µg/mL); in that of `Cn1cnc2c1c(=O)n(CC(=O)O)c(=O)n2C`, 42 mM (≈ 10000 µg/mL); in that of `CC(C)C1OC(=O)c2ccccc21` (stereo not drawn), 5.54 mM (≈ 976 µg/mL).

Take `Cc1nc2c(c(=O)n(C)c(=O)n2C)n1C`: the solubility came out at 35.5 mM (≈ 7400 µg/mL).

Still in this data set, the particulars now being: 26 °C.
`CSCCC(C(=O)O)N(CCC#N)CCC#N` (racemic) yielded a solubility of 47 mM (≈ 12000 µg/mL).

With `CSC1=CC(=O)c2ccccc2C1=O`, the solubility came out at 0.0343 mM (≈ 7 µg/mL).

Staying with this data set, now noted: 27 °C.
Turning to `O=C(O)CCC(=O)OC[C@@H](NC(=O)C(Cl)Cl)[C@H](O)c1ccc([N+](=O)[O-])cc1`, the solubility turned out to be 8.27 mM (≈ 3500 µg/mL).

The same data set, now with this note: 30 °C.
`CCN(CC)C(C#N)c1ccccc1` (stereo not drawn) had a solubility of 106 mM (≈ 20000 µg/mL). On to `O=C(O)c1ccccc1C(=O)c1ccc(Br)cc1`, for which the solubility came to 0.983 mM (≈ 300 µg/mL).

The values above are taken from the OPERA property sets (Mansouri et al. 2018).
